# Experimental data reported in patent US4311698A, “Aminoacid derivatives of cephalosporin compounds” (priority 1980, dated 1982).
# Columns and labels:
# Type in all cases: cell-based
# Pseudomonas #28 = assay: In vitro minimal inhibitory concentration, Pseudomonas #28; details: Pseudomonas #28, in vitro; for MIC: read-out: Minimal Inhibitory Concentration
# Pseudomonas BRK 12-4-4 = assay: In vitro minimal inhibitory concentration, Pseudomonas BRK 12-4-4; details: for MIC: BRK1244
# Pseudomonas UI 18 = assay: In vitro minimal inhibitory concentration, Pseudomonas UI 18; details: for MIC: UI18
# E. Coli. Brig = assay: In vitro minimal inhibitory concentration, E. Coli. Brig; details: for MIC: Escherichia coli
# E. Coli. Vogel = assay: In vitro minimal inhibitory concentration, E. Coli. Vogel; details: for MIC: Escherichia coli
# Prot Vulg. = assay: In vitro minimal inhibitory concentration, Prot Vulg.
# Entero Cloac. IM 11 = assay: In vitro minimal inhibitory concentration, Entero Cloac. IM 11
# Serr. Mar. IMM 16 = assay: In vitro minimal inhibitory concentration, Serr. Mar. IMM 16
# Klebs. Pneum. MGH 2 = assay: In vitro minimal inhibitory concentration, Klebs. Pneum. MGH 2
# Strep. fec. MGH 2 = assay: In vitro minimal inhibitory concentration, Strep. fec. MGH 2
# Staph UC76 = assay: In vitro minimal inhibitory concentration, Staph UC76
# Staph S 18713 = assay: In vitro minimal inhibitory concentration, Staph S 18713
Structure (SMILES),MIC (Pseudomonas #28) [µg/mL],MIC (Pseudomonas BRK 12-4-4) [µg/mL],MIC (Pseudomonas UI 18) [µg/mL],MIC (E. Coli. Brig) [µg/mL],MIC (E. Coli. Vogel) [µg/mL],MIC (Prot Vulg.) [µg/mL],MIC (Entero Cloac. IM 11) [µg/mL],MIC (Serr. Mar. IMM 16) [µg/mL],MIC (Klebs. Pneum. MGH 2) [µg/mL],MIC (Strep. fec. MGH 2) [µg/mL],MIC (Staph UC76) [µg/mL],MIC (Staph S 18713) [µg/mL],other results
"CC(=O)N[C@@H](C)C(=O)Nc1ccc(-c2ccc(C(=O)N[C@@H](C(=O)NC3C(=O)N4C(C(=O)O)=C(CSc5nnc(C)s5)CSC34)c3ccccc3)c(=O)[nH]2)cc1 (stereo partly drawn) [Example 15, N-[6-[4-(N-Acetyl-L-alanylamino)phenyl]-1,2-dihydro-2-oxonicotinyl]-7-[D-2-amino-2-phenylacetamido]-3-[([5-methyl-1,3,4-thiadiazolyl-2-yl]thio)methyl]-3-cephem-4-carboxylic acid]",12.5,12.5,12.5,6.3,1.6,12.5,12.5,25,3.1,12.5,0.4,6.3,
"O=C(O)Cn1nnnc1SCC1=C(C(=O)O)N2C(=O)C(NC(=O)[C@H](NC(=O)c3ccc(-c4ccc(NC(=O)[C@@H]5CCC(=O)N5)cc4)[nH]c3=O)c3ccccc3)C2SC1 (stereo partly drawn) [Example 16, N-[6-[4-(L-Pyroglutamylamino)phenyl]-1,2-dihydro-2-oxonicotinyl]-7-[D-2-amino-2-phenylacetamido]-3-[[(1-carboxymethyl-1H-tetrazol-5-yl)thio]methyl]-3-cephem-4-carboxylic acid]",3.1,6.3,6.3,3.1,0.4,0.4,3.1,6.3,0.8,50,3.1,12.5,
"CC(=O)N[C@H](C)C(=O)Nc1ccc(-c2ccc(C(=O)N[C@@H](C(=O)NC3C(=O)N4C(C(=O)O)=C(CSc5nnnn5C)CSC34)c3ccccc3)c(=O)[nH]2)cc1 (stereo partly drawn) [Example 19, N-[6-[4-(N-Acetyl-D-alanylamino)phenyl]-1,2-dihydro-2-oxonicotinyl]-7-[D-2-amino-2-phenylacetamido]-3-[[(1-methyl-1H-tetrazol-5-yl)thio]methyl]-3-cephem-4-carboxylic acid]",6.3,12.5,6.3,6.3,0.8,12.5,12.5,25,3.1,25,0.8,6.3,
"CC(=O)N[C@H](CC(N)=O)C(=O)Nc1ccc(-c2ccc(C(=O)N[C@@H](C(=O)NC3C(=O)N4C(C(=O)O)=C(CSc5nnnn5C)CSC34)c3ccccc3)c(=O)[nH]2)cc1 (stereo partly drawn) [Example 23, N-[6-[4-(N-Acetyl-D-asparaginylamino)phenyl]-1,2-dihydro-2-oxonicotinyl]-7-[D-2-amino-2-phenylacetamido]-3-[[(1-methyl-1H-tetrazol-5-yl)thio]methyl]-3-cephem-4-carboxylic acid]",12.5,6.3,6.3,3.1,0.8,12.5,6.3,25,1.6,25,0.8,6.3,
"CC(=O)N[C@H](C)C(=O)Nc1ccc(-c2ccc(C(=O)N[C@@H](C(=O)NC3C(=O)N4C(C(=O)O)=C(CSc5nnnn5C)CSC34)c3ccc(O)cc3)c(=O)[nH]2)cc1 (stereo partly drawn) [Example 25, N-[6-[4(N-Acetyl-D-alanylamino)phenyl]-1,2-dihydro-2-oxonicotinyl]-7-[D-2-amino-2-(4-hydroxyphenyl)acetamido]-3-[[(1-methyl-1H-tetrazol-5-yl)thio]methyl]-3-cephem-4-carboxylic acid]",3.1,3.1,3.1,3.1,0.8,6.3,1.6,12.5,1.6,12.5,1.6,6.3,
CC(=O)N[C@H](C)C(=O)Nc1cccc(-c2ccc(C(=O)N[C@@H](C(=O)NC3C(=O)N4C(C(=O)O)=C(COC(C)=O)CSC34)c3ccccc3)c(=O)[nH]2)c1 (stereo partly drawn) [Example 28],12.5,25,12.5,25,12.5,50,50,> 50,25,25,1.6,1.6,
"CC(=O)OCC1=C(C(=O)O)N2C(=O)C(NC(=O)[C@H](NC(=O)c3ccc(-c4ccc(NC(=O)[C@@H](C)N)cc4)[nH]c3=O)c3ccccc3)C2SC1 (stereo partly drawn) [Example 29, N-[6-[4-(D-Alanylamino)phenyl]-1,2-dihydro-2-oxonicotinyl]-7-[D-2-amino-2-phenylacetamido]-3-acetoxymethyl-3-cephem-4-carboxylic acid]",,,,,,,,,,,,,Minimal Inhibitory Concentration (Pseudomonas #28): 1.6 µg/mL; Minimal Inhibitory Concentration (Pseudomonas BRK 12-4-4): 1.6 µg/mL; Minimal Inhibitory Concentration (Pseudomonas UI 18): 1.6 µg/mL; Minimal Inhibitory Concentration (E. Coli. Brig): 6.3 µg/mL; Minimal Inhibitory Concentration (E. Coli. Vogel): 1.6 µg/mL; Minimal Inhibitory Concentration (Prot Vulg.): 6.3 µg/mL; Minimal Inhibitory Concentration (Entero Cloac. IM 11): 12.5 µg/mL; Minimal Inhibitory Concentration (Serr. Mar. IMM 16): 25 µg/mL; Minimal Inhibitory Concentration (Klebs. Pneum. MGH 2): 6.3 µg/mL; Minimal Inhibitory Concentration (Strep. fec. MGH 2): 12.5 µg/mL; Minimal Inhibitory Concentration (Staph UC76): 0.4 µg/mL; Minimal Inhibitory Concentration (Staph S 18713): 1.6 µg/mL
"CC(=O)N1CC(O)C[C@H]1C(=O)Nc1ccc(-c2ccc(C(=O)N[C@@H](C(=O)NC3C(=O)N4C(C(=O)O)=C(CSc5nnnn5CC(=O)O)CSC34)c3ccccc3)c(=O)[nH]2)cc1 (stereo partly drawn) [Example 30, N-[6-[4-(N-Acetyl-4-hydroxy-L-prolylamino)phenyl]-1,2-dihydro-2-oxonicotinyl]-7-[D-2-amino-2-phenylacetamido]-3-[[(1-carboxymethyl-1H-tetrazol-5-yl)thio]methyl]-3-cephem-4-carboxylic acid]",6.3,12.5,6.3,3.1,0.8,1.6,3.1,12.5,1.6,> 50,6.3,25,
"CC(=O)OCC1=C(C(=O)O)N2C(=O)C(NC(=O)[C@H](NC(=O)c3ccc(-c4ccc(NC(=O)[C@@H]5CC(O)CN5C(C)=O)cc4)[nH]c3=O)c3ccccc3)C2SC1 (stereo partly drawn) [Example 31, N-[6-[4-(N-Acetyl-4-hydroxy-L-prolylamino)phenyl]-1,2-dihydro-2-oxonicotinyl]-7-[D-2-amino-2-phenylacetamido]-3-acetoxymethyl-3-cephem-4-carboxylic acid]",12.5,12.5,12.5,12.5,3.1,25,12.5,> 50,6.3,25,0.8,25,
"CC(=O)OCC1=C(C(=O)O)N2C(=O)C(NC(=O)[C@H](NC(=O)c3ccc(-c4ccc(NC(=O)[C@@H]5CC(OC(C)=O)CN5C(C)=O)cc4)[nH]c3=O)c3ccccc3)C2SC1 (stereo partly drawn) [Example 32, N-[6-[4-[N-Acetyl-4-(acetyloxy)-L-prolylamino]phenyl]-1,2-dihydro-2-oxoniotinyl]-7-[D-2-amino-2-phenylacetamido]-3-acetoxymethyl-3-cephem-4-carboxylic acid]",12.5,25,12.5,25,6.3,25,25,> 50,12.5,25,1.6,6.3,
"CC(=O)OCC1=C(C(=O)O)N2C(=O)C(NC(=O)[C@H](NC(=O)c3ccc(-c4ccc(NC(=O)[C@@H]5CCC(=O)N5C)cc4)[nH]c3=O)c3ccccc3)C2SC1 (stereo partly drawn) [Example 34, N-[6-[4-[N-Methyl-5-oxo-L-prolylamino]phenyl]-1,2-dihydro-2-oxo-nicotinyl]-7-[D-2-amino-2-phenylacetamido]-3-acetoxymethyl-3-cephem-4-carboxylic acid]",6.3,12.5,6.3,12.5,3.1,12.5,12.5,50,6.3,25,0.4,3.1,
"CC(=O)NCCCC[C@H](NC(C)=O)C(=O)Nc1ccc(-c2ccc(C(=O)N[C@@H](C(=O)NC3C(=O)N4C(C(=O)O)=C(COC(C)=O)CSC34)c3ccccc3)c(=O)[nH]2)cc1 (stereo partly drawn) [Example 35, N-[6-[4-(N,N'-Diacetyl-L-lysylamino)phenyl]-1,2-dihydro-2-oxonicotinyl]-7-[D-2-amino-2-phenylacetamido]-3-acetoxymethyl-3-cephem-4-carboxylic acid]",12.5,12.5,6.3,25,6.3,> 50,12.5,> 50,12.5,25,3.1,6.3,
CC(=O)N[C@H](C)C(=O)Nc1ccc(-c2ccc(C(=O)N[C@@H](C(=O)NC3C(=O)N4C(C(=O)O)=C(CSc5nnnn5CCC(=O)O)CSC34)c3ccccc3)c(=O)[nH]2)cc1 (stereo partly drawn) [Example 41],6.3,12.5,12.5,6.3,0.8,3.1,6.3,12.5,1.6,50,3.1,12.5,
